Data reported in patent publication US9102648B1, “Bioavailable diacylhydrazine ligands for modulating the expression of exogenous genes via an ecdysone receptor complex” (Intrexon Corporation, priority 2003, dated 2015).
pEC50: −log10 of the molar value. Like-named read-outs stand apart in the source and are kept apart here.

Molecular target: GAL4 DBD (1-147)-CfEcR(DEF)/VP16AD-βRXREF-LmUSPEF (Choristoneura fumiferana, UniProt O77240)
Experiment: cell-based
Conditions: for Fold Induction, 27-63 Assay, 3.3 uM: 3.3 uM ligand; for Fold Induction, 27-63 Assay, 3.3 uM / Fold Induction, 27-63 Assay, 33 uM: RLU ligand treated / RLU DMSO treated cells; for Fold Induction, 27-63 Assay, 33 uM: 33 uM ligand; for 27-63 assay Rel Max FI: maximum fold induction at any concentration relative to that of GS-E ligand, CHO 27-63 cells; for fold induction at 3.3 µM: read-out: Fold Induction, 27-63 Assay, 3.3 uM; for fold induction at 33 µM: read-out: Fold Induction, 27-63 Assay, 33 uM
[1] = read-out: 27-63 assay EC50, CHO 27-63 stable cell line, luciferase reporter, average of two wells

Row | Structure (SMILES) | Fold Induction, 27-63 Assay, 3.3 uM (average of two wells) | Fold Induction, 27-63 Assay, 33 uM (average of two wells) | 27-63 assay Rel Max FI | pEC50 [1] | pEC50 | fold induction at 3.3 µM | fold induction at 33 µM
1 | CCc1c(C(=O)NN(C(=O)c2ccc(Cl)cc2F)C(C)(C)C)ccc2c1OCCO2 [RG-115514] | 1616 | 1427 | 0.720 | 6.77 | – | – | –
2 | CCc1c(C(=O)NN(C(=O)c2cccc(OC)c2)C(C)(C)C)ccc2c1OCCO2 [RG-100691] | 1378 | 1209 | 0.863 | 6.48 | – | – | –
3 | CCc1c(OC)cccc1C(=O)NN(C(=O)c1cc(C)cc(C)c1)C(C)(C)CO [RG-115143] | 59 | 1736 | 1.112 | 5.11 | – | – | –
4 | Cc1c(C(=O)NN(C(=O)c2ccc(F)cc2)C(C)(C)C)ccc2c1OCO2 [RG-100448] | 66 | 847 | 0.609 | 5.28 | – | – | –
5 | CCOC(=O)C(C)(C)N(NC(=O)c1cccc(OC)c1CC)C(=O)c1cc(C)cc(C)c1 [RG-115025, 2-[N-(3,5-dimethyl-benzoyl)-N′-(2-ethyl-3-methoxy-benzoyl)-hydrazino]-2-methyl-propionic acid ethyl ester] | – | – | 1.523 | – | 5.61 | 2290 | 2240
6 | CCc1c(OC)cccc1C(=O)NN(C(=O)c1cc(C)cc(C)c1)C(C)(C)C(=O)O [RG-115044, 2-[N-(3,5-Dimethyl-benzoyl)-N′-(2-ethyl-3-methoxy-benzoyl)-hydrazino]-2-methyl-propionic acid] | – | – | 0.00 | – | < 4.48 | 1 | 2
7 | Cc1ccc(F)c(C(=O)N(NC(=O)c2ccc3c(c2C)CCCO3)C(C)(C)C)c1 [RG-115499] | 2092 | 1536 | 0.705 | 6.47 | – | – | –
8 | CCc1c(C(=O)NN(C(=O)c2ccccc2)C(C)(C)C)ccc2c1OCOC2 [RG-115046] | 18 | 1069 | 0.739 | 5.25 | – | – | –
9 | CC(O)c1ccc(C(=O)NN(C(=O)c2cc(F)cc(F)c2)C(C)(C)C)cc1 (stereo not shown) [RG-100342] | 2 | 1287 | 0.674 | 4.75 | – | – | –
10 | CCc1c(OC)cccc1C(=O)NN(C(=O)c1cc(C)ccc1[N+](=O)[O-])C(C)(C)C [RG-115162] | 1814 | 1464 | 0.653 | 6.37 | – | – | –
11 | CCc1c(C(=O)NN(C(=O)c2ccccc2OC)C(C)(C)C)ccc2c1OCCO2 [RG-115244] | 2203 | 1847 | 0.785 | 6.77 | – | – | –
12 | CCc1c(C(=O)NN(C(=O)c2ccccc2OC)C(C)(C)C)ccc2c1OCCO2 [RG-100690] | 1136 | 1047 | 0.727 | 6.70 | – | – | –
13 | Cc1c(C(=O)NN(C(=O)c2ccc(F)cc2)C(C)(C)C)ccc2c1CCCO2 [RG-115118] | 1063 | 914 | 0.612 | 6.40 | – | – | –
14 | COc1cccc(C(=O)NN(C(=O)c2cc(C)cc(C)c2)C(C)(C)C)c1N [RG-115378] | 1493 | 1407 | 0.863 | 6.12 | – | – | –
15 | COc1cccc(C(=O)NN(C(=O)c2cc(C)ccc2[N+](=O)[O-])C(C)(C)C)c1C [RG-100569] | 884 | 841 | 0.720 | 6.54 | – | – | –
16 | Cc1ccc([N+](=O)[O-])c(C(=O)N(NC(=O)c2ccc3c(c2C)OCCO3)C(C)(C)C)c1 [RG-115384] | 1713 | 1282 | 0.645 | 6.95 | – | – | –
17 | CCc1c(C(=O)NN(C(=O)c2cc(OC)c(C)c(OC)c2)C(C)(C)C)ccc2c1OCCO2 [RG-115130] | 4436 | 4096 | 1.375 | 7.03 | – | – | –
18 | CCc1c(C(=O)NN(C(=O)c2ccccc2OC)C(C)(C)C)ccc2c1OCOC2 [RG-115065] | 859 | 1095 | 0.746 | 5.52 | – | – | –
19 | Cc1c(C(=O)NN(C(=O)c2cc(F)cc(F)c2)C(C)(C)C)ccc2c1CCCO2 [RG-115207] | 1332 | 1279 | 0.704 | 6.23 | – | – | –
20 | COc1ccc(Cl)cc1C(=O)N(NC(=O)c1ccc2c(c1C)CCCO2)C(C)(C)C [RG-115551] | 1150 | 1068 | 0.684 | 6.07 | – | – | –

Row | Structure (SMILES) | Fold Induction, 27-63 Assay, 3.3 uM (average of two wells) | Fold Induction, 27-63 Assay, 33 uM (average of two wells) | 27-63 assay Rel Max FI | pEC50 [1] | pEC50 | fold induction at 3.3 µM | fold induction at 33 µM
21 | CCc1c(OC)cccc1C(=O)NN(C(=O)c1ccc(Cl)cc1[N+](=O)[O-])C(C)(C)C [RG-115647] | 817 | 815 | 0.505 | 6.43 | – | – | –
22 | CCc1c(C(=O)NN(C(=O)c2ccc(F)c(F)c2F)C(C)(C)C)ccc2c1OCCO2 [RG-115580] | 1104 | 1031 | 0.760 | 6.43 | – | – | –
23 | CCc1c(OC)cccc1C(=O)NN(C(=O)c1cc(F)c(Cl)cc1Cl)C(C)(C)C [RG-115302] | 940 | 815 | 0.521 | 5.98 | – | – | –
24 | CCc1c(OC)cccc1C(=O)NN(C(=O)c1ccc2c(c1)OCO2)C(C)(C)C [RG-100699] | 398 | 1413 | 0.939 | 5.40 | – | – | –
25 | CCc1c(OC)cccc1C(=O)NN(C(=O)c1cc(Cl)ccc1[N+](=O)[O-])C(C)(C)C [RG-115257] | 1130 | 1320 | 0.663 | 6.16 | – | – | –
26 | COc1cccc(C(=O)NN(C(=O)c2cc(C)cc(C)c2)C(C)(C)C)c1[N+](=O)[O-] [RG-100568] | 615 | 2286 | 1.197 | 5.38 | – | – | –
27 | CCc1ccc(C(=O)NN(C(=O)c2cc(C)cc(C)c2)C(C)(C)C)cc1 [RG-102125] | – | – | 0.721 | – | 6.72 | – | –
28 | CCc1c(OC)cccc1C(=O)NN(C(=O)c1ccccc1OC)C(C)(C)C [RG-100725] | 1096 | 1050 | 0.726 | 6.48 | – | – | –
29 | CCc1c(OC)cccc1C(=O)NN(C(=O)c1cc(C)cc(C)c1)C(C)(C)C=NO [RG-115258, 2-ethyl-3-methoxy-benzoic acid N′-(3,5-dimethyl-benzoyl)-N′-(2-hydroxyimino-1,1-dimethyl-ethyl)-hydrazide] | – | – | 1.279 | – | 5.73 | 1970 | 2210
30 | CCc1c(C(=O)NN(C(=O)c2cc(Cl)nc(Cl)c2)C(C)(C)C)ccc2c1OCCO2 [RG-115297] | 1544 | 946 | 0.986 | 6.48 | – | – | –
31 | COc1cc(C)cc(C(=O)N(NC(=O)c2cccc(OC)c2C)C(C)(C)C)c1 [RG-100767] | 2097 | 2171 | 1.218 | 6.48 | – | – | –
32 | CCc1c(OC)cccc1C(=O)NN(C(=O)c1cc(Cl)ccc1OC)C(C)(C)C [RG-115253] | 848 | 910 | 0.742 | 6.97 | – | – | –
33 | CCc1c(OC)cccc1C(=O)NN(C(=O)c1cc(C)cc(COC(C)=O)c1)C(C)(C)C [RG-115223] | 273 | 1935 | 1.167 | 5.33 | – | – | –
34 | Cc1ccc([N+](=O)[O-])c(C(=O)N(NC(=O)c2ccc3c(c2C)CCCO3)C(C)(C)C)c1 [RG-115664] | 1928 | 1768 | 0.635 | 6.44 | – | – | –
35 | Cc1c(C(=O)NN(C(=O)c2ccc(F)c(F)c2)C(C)(C)C)ccc2c1CCCO2 [RG-115416] | 2412 | 1867 | 0.721 | 6.20 | – | – | –
36 | COc1cccc(C(=O)N(NC(=O)c2ccc3c(c2C)OCCO3)C(C)(C)C)c1 [RG-100360] | 1627 | 1353 | 0.873 | 6.21 | – | – | –
37 | CCc1c(C(=O)NN(C(=O)c2ccc(Cl)cc2OC)C(C)(C)C)ccc2c1OCO2 [RG-115085] | 1143 | 1149 | 0.683 | 6.09 | – | – | –
38 | CCc1c(OC)cccc1C(=O)NN(C(=O)c1c(F)cccc1F)C(C)(C)C [RG-115033] | 2 | 1256 | 0.868 | 4.74 | – | – | –
39 | COc1cccc(C(=O)NN(C(=O)c2cccc(C)c2)C(C)(C)C)c1C [RG-100694] | 1057 | 1004 | 0.767 | 6.40 | – | – | –
